According to US8569344B2, “N-piperidinyl acetamide derivatives as calcium channel blockers” (Zalicus Pharmaceuticals Ltd., priority 2008, dated 2013):
Like-named read-outs stand apart in the source and are kept apart here.

What was measured:
Assay type in all cases: cell-based
hERG K+ channel = hERG K+ channel (Homo sapiens, UniProt Q12809); assay: hERG K+ Channel Block
[1] = target: T1, human α1H T-type channels (Homo sapiens, UniProt O95180); assay: T-type calcium channel block, whole cell patch clamp in HEK cells (α1H); conditions: HEK cells, patch clamp, mainly non-inactivated protocol; values above 10 μM shown as 10 μM; read-out: T-type Calcium Channel Block α1H IC50
T1 construct: expressed in transfected cells; host or cells: HEK 293

[2] = target: T2, human α1G T-type channels (Homo sapiens, UniProt O43497); assay: T-type calcium channel block, whole cell patch clamp in HEK cells (α1G); conditions: HEK cells, patch clamp, mainly non-inactivated protocol; values above 10 μM shown as 10 μM, below 0.30 μM shown as 0.30 μM; read-out: T-type Calcium Channel Block α1G IC50
T2 construct: expressed in transfected cells; host or cells: HEK 293

T1 sequence (O95180 whole entry): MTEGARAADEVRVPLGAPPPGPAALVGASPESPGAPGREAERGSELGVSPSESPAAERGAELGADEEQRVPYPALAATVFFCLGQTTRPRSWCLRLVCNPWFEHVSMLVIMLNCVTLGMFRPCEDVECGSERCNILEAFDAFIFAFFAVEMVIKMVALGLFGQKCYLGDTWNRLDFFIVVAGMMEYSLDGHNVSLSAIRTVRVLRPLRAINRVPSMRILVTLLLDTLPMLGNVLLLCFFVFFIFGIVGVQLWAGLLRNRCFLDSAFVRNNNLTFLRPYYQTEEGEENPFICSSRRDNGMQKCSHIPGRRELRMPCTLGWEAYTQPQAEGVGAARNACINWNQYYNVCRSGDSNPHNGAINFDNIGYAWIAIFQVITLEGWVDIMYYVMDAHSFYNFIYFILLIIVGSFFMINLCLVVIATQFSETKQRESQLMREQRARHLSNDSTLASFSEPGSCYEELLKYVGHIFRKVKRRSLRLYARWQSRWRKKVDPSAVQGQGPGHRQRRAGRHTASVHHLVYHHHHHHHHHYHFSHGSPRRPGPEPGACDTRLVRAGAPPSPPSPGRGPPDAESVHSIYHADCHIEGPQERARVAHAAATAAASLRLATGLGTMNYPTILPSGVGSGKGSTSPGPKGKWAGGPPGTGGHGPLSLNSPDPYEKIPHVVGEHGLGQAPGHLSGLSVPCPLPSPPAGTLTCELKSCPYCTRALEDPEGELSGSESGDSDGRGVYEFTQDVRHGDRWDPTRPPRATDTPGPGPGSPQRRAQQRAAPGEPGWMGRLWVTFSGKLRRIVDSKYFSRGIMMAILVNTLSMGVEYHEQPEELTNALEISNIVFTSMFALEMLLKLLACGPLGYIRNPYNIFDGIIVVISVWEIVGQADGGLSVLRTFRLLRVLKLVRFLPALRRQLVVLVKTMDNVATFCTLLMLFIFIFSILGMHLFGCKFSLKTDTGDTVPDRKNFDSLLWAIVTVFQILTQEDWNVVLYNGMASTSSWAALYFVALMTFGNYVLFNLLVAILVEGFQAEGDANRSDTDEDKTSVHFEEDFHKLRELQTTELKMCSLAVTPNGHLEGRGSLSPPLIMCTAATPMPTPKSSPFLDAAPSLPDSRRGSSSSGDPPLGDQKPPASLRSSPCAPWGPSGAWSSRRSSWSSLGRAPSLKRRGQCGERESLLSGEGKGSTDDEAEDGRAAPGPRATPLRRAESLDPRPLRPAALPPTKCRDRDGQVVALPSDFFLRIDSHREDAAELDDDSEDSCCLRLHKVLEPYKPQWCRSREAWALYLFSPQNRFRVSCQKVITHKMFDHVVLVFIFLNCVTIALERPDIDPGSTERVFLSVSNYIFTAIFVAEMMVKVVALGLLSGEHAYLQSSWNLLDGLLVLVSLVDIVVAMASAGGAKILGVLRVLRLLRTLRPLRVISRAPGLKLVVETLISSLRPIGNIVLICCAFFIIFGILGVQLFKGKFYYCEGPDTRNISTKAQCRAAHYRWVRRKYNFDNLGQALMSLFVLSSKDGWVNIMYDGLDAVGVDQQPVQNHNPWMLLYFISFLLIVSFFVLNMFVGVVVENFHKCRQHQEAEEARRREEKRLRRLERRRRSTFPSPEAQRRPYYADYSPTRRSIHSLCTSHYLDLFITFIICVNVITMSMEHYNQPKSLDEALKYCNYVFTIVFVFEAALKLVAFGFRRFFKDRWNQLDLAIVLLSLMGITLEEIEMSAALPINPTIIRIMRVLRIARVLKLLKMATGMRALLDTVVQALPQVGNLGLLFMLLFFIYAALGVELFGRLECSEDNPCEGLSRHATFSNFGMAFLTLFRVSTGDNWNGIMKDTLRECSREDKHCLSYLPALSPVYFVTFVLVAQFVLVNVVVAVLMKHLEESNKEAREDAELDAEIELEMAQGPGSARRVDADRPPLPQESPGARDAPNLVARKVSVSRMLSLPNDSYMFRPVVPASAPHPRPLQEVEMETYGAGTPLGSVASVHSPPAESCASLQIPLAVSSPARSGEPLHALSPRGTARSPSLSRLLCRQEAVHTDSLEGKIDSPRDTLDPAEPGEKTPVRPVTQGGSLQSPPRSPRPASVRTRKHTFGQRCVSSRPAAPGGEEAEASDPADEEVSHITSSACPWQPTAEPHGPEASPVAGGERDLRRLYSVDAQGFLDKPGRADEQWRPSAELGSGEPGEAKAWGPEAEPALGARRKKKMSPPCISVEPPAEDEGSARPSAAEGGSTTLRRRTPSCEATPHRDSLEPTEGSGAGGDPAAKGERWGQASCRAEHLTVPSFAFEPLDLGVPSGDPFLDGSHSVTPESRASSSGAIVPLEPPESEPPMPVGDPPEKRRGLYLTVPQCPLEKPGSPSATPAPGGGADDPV
hERG K+ channel, sequence (Q12809 whole entry): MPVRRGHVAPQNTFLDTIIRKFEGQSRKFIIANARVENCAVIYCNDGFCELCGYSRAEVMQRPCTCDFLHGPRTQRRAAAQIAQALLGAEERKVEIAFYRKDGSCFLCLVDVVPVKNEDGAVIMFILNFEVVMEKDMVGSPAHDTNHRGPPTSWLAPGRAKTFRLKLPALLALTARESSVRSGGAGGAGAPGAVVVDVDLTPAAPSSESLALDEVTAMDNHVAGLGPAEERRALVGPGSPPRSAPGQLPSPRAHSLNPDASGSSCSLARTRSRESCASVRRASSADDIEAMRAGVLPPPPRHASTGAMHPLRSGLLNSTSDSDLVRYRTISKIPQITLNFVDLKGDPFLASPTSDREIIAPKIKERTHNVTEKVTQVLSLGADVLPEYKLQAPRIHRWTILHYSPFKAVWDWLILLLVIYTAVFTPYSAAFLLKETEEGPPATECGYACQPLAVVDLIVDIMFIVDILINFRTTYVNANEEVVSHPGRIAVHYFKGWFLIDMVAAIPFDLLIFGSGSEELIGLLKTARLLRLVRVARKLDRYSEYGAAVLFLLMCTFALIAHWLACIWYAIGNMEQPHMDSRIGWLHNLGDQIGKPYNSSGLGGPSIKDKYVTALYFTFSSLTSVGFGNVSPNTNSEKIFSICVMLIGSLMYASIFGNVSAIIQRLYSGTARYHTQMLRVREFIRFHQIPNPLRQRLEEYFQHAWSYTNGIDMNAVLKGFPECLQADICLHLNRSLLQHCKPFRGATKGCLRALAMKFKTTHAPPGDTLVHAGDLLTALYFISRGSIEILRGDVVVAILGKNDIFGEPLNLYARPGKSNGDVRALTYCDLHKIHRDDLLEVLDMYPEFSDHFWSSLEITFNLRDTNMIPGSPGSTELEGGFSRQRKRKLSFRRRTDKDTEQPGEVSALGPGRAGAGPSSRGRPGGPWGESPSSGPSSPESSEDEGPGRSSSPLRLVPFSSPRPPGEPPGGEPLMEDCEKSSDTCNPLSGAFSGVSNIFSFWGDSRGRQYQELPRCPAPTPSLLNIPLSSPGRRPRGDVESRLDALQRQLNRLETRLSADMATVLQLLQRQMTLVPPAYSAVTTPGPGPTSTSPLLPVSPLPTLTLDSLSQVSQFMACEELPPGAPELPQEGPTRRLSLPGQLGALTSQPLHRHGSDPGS

O=C(NCC1CCN(CCNS(=O)(=O)C(F)(F)F)CC1)c1cc(Br)cc(C(F)(F)F)c1 [Compound 115, 3-bromo-5-(trifluoromethyl)-N-((1-(2-(trifluoromethylsulfonamido)ethyl)piperidin-4-yl)methyl)benzamide]
IC50 (hERG K+ channel; human): ≥ 8300 nM
IC50 [1]: 230 nM

CC(C)(C)C(O)CN1CCC(CC(=O)Nc2cc(C(F)(F)F)cc(C(F)(F)F)c2)CC1 (stereo not shown) [Compound 153, N-(3,5-bis(trifluoromethyl)phenyl)-2-(1-(2-hydroxy-3,3-dimethylbutyl)piperidin-4-yl)acetamide]
IC50 (hERG K+ channel): 2800 nM
IC50 [2]: < 300 nM
IC50 [1]: 70 nM

NC1(CN2CCC(CC(=O)Nc3cc(C(F)(F)F)cc(C(F)(F)F)c3)CC2)CCCC1 [Compound 159, 2-(1-((1-aminocyclopentyl)methyl)piperidin-4-yl)-N-(3,5-bis(trifluoromethyl)phenyl)acetamide]
IC50 (hERG K+ channel): 1300 nM
IC50 [2]: 310 nM
IC50 [1]: 3360 nM

CS(=O)(=O)NC1(CN2CCC(CC(=O)Nc3cc(C(F)(F)F)cc(C(F)(F)F)c3)CC2)CCCC1 [Compound 160, N-(3,5-bis(trifluoromethyl)phenyl)-2-(1-((1-(methylsulfonamido)cyclopentyl)methyl)piperidin-4-yl)acetamide]
IC50 (hERG K+ channel): 190 nM
IC50 [2]: 20 nM
IC50 [1]: 500 nM

O=C(CC1CCN(CC(O)C(F)(F)F)CC1)Nc1cc(C(F)(F)F)cc(C(F)(F)F)c1 (stereo not shown) [Compound 178, N-(3,5-bis(trifluoromethyl)phenyl)-2-(1-(3,3,3-trifluoro-2-hydroxypropyl)piperidin-4-yl)acetamide]
IC50 (hERG K+ channel): 1600 nM
IC50 [2]: 720 nM
IC50 [1]: 5100 nM

O=C(CC1CCN(CC2(NS(=O)(=O)C3CC3)CCCC2)CC1)Nc1cc(C(F)(F)F)cc(C(F)(F)F)c1 [Compound 179, N-(3,5-bis(trifluoromethyl)phenyl)-2-(1-((1-(cyclopropanesulfonamido)cyclopentyl)methyl)piperidin-4-yl) acetamide]
IC50 (hERG K+ channel): 330 nM
IC50 [2]: 2 nM
IC50 [1]: 80 nM

CC(C)(C)C(=O)NCCN1CCC(CC(=O)Nc2cc(C(F)(F)F)cc(C(F)(F)F)c2)CC1 [Compound 334, N-(2-(4-(2-(3,5-bis(trifluoromethyl)phenylamino)-2-oxoethyl)piperidin-1-yl)ethyl)pivalamide]
IC50 (hERG K+ channel): 920 nM
IC50 [2]: < 300 nM
IC50 [1]: 220 nM

O=C(NCC1CCN(CCNC(=O)C2(C(F)(F)F)CC2)CC1)c1cc(F)cc(C(F)(F)F)c1 [Compound 343, 3-fluoro-5-(trifluoromethyl)-N-((1-(2-(1-(trifluoromethyl)cyclopropanecarbox-amido)ethyl)piperidin-4-yl)methyl) benzamide]
IC50 (hERG K+ channel): 6200 nM
IC50 [2]: 330 nM
IC50 [1]: 130 nM

CC(C)NC(=O)CN1CCC(CNC(=O)c2cc(C(F)(F)F)cc(C(F)(F)F)c2)CC1 [Compound 344, N-((1-(2-(isopropylamino)-2-oxoethyl)piperidin-4-yl)methyl)-3,5-bis(trifluoromethyl)benzamide]
IC50 (hERG K+ channel): 9100 nM
IC50 [2]: < 300 nM
IC50 [1]: 120 nM

Cc1cc(C)cc(C(=O)NCC2CCN(CC(=O)NC(C)(C)C)CC2)c1 [Compound 362, N-((1-(2-(tert-butylamino)-2-oxoethyl)piperidin-4-yl)methyl)-3,5-dimethylbenzamide]
IC50 (hERG K+ channel; human): ≥ 8300 nM
IC50 [2]: < 300 nM
IC50 [1]: 170 nM

Cc1cc(F)cc(C(=O)NCC2CCN(CC(=O)NC(C)(C)C)CC2)c1 [Compound 363, N-((1-(2-(tert-buylamino)-2-oxoethyl)piperidin-4-yl)methyl)-3-fluoro-5-methylbenzamide]
IC50 (hERG K+ channel; human): ≥ 8300 nM
IC50 [2]: < 300 nM
IC50 [1]: 200 nM

COc1cc(F)cc(C(=O)NCC2CCN(CC(=O)NC(C)(C)C)CC2)c1 [Compound 366, N-((1-(2-(tert-butylamino)-2-oxoethyl)piperidin-4-yl)methyl)-3-fluoro-5-methoybenzamide]
IC50 (hERG K+ channel; human): ≥ 8300 nM
IC50 [2]: < 300 nM
IC50 [1]: 120 nM

CC(C)(C)NC(=O)CN1CCC(CNC(=O)c2cccc(C(F)(F)F)c2)CC1 [Compound 371, N-((1-(2-(tert-butylamino)-2-oxoethyl)piperidin-4-yl)methyl)-3-(trifluoromethyl)benzamide]
IC50 (hERG K+ channel): 14700 nM
IC50 [2]: < 300 nM
IC50 [1]: 140 nM

CC(C)(C)NC(=O)CN1CCC(CNC(=O)c2cccc(Br)c2)CC1 [Compound 374, 3-bromo-N-((1-(2-(tert-butylamino)-2-oxoethyl)piperidin-4-yl)methyl) benzamide]
IC50 (hERG K+ channel): 7800 nM
IC50 [2]: < 300 nM
IC50 [1]: 90 nM

CC(C)(C)NC(=O)CN1CCC(CNC(=O)c2cccc(OC(F)(F)F)c2)CC1 [Compound 375, N-((1-(2-(tert-butylamino)-2-oxoethyl)piperidin-4-yl)methyl)-3-(trifluoromethoxy)benzamide]
IC50 (hERG K+ channel): 8800 nM
IC50 [2]: < 300 nM
IC50 [1]: 70 nM

CC(C)(C)NC(=O)CN1CCC(CNC(=O)c2cc(F)cc(C(F)(F)F)c2)CC1 [Compound 376, N-((1-(2-(tert-butylamino)-2-oxoethyl)piperidin-4-yl)methyl)-3-fluoro-5-(trifluoromethyl)benzamide]
IC50 (hERG K+ channel): 11000 nM
IC50 [2]: < 300 nM
IC50 [1]: 160 nM

COc1cc(OC)cc(C(=O)NCC2CCN(CC(=O)NC(C)(C)C(F)(F)F)CC2)c1 [Compound 457, 3,5-dimethoxy-N-((1-(2-oxo-2-(1,1,1-trifluoro-2-methylpropan-2-ylamino)ethyl)piperidin-4-yl)methyl)benzamide]
IC50 (hERG K+ channel; human): ≥ 16600 nM
IC50 [2]: < 300 nM
IC50 [1]: 50 nM

CC(C)(NC(=O)CN1CCC(CNC(=O)c2cccc(Cl)c2)CC1)C(F)(F)F [Compound 460, 3-chloro-N-((1-(2-oxo-2-(1,1,1-trifluoro-2-methylpropan-2-ylamino)ethyl)piperidin-4-yl)methyl)benzamide]
IC50 (hERG K+ channel): 6900 nM
IC50 [2]: < 300 nM
IC50 [1]: 30 nM

CC(C)(NC(=O)CN1CCC(CNC(=O)c2cc(F)cc(Cl)c2)CC1)C(F)(F)F [Compound 461, 3-chloro-5-fluoro-N-((1-(2-oxo-2-(1,1,1-trifluoro-2-methylpropan-2-ylamino)ethyl)piperidin-4-yl)methyl)benzamide]
IC50 (hERG K+ channel): 7400 nM
IC50 [2]: < 300 nM
IC50 [1]: 20 nM

CC(C)(NC(=O)CN1CCC(CNC(=O)c2cccc(OC(F)(F)F)c2)CC1)C(F)(F)F [Compound 462, N-((1-(2-oxo-2-(1,1,1-trifluoro-2-methylpropan-2-ylamino)ethyl)piperidin-4-yl)methyl)-3-(trifluoromethoxy) benzamide]
IC50 (hERG K+ channel): 4100 nM
IC50 [2]: < 300 nM
IC50 [1]: 30 nM

O=C(NCC1CCN(CC(=O)N2CCC[C@H]2C(F)(F)F)CC1)c1cccc(Br)c1 [Compound 468, (S)-3-bromo-N-((1-(2-oxo-2-(2-(trifluoromethyl)pyrrolidin-1-yl)ethyl)piperidin-4-yl)methyl)benzamide]
IC50 (hERG K+ channel): 4200 nM
IC50 [2]: < 300 nM
IC50 [1]: 90 nM

CN(C(=O)CN1CCC(CNC(=O)c2cc(F)cc(C(F)(F)F)c2)CC1)C1(C)CCC1 [Compound 594, 3-fluoro-N-((1-(2-(methyl(1-methylcyclobutyl)amino)-2-oxoethyl)piperidin-4-yl)methyl)-5-(trifluoromethyl)benzamide]
IC50 (hERG K+ channel; human): ≥ 17000 nM
IC50 [1]: 160 nM
